Measurements taken from PMC6815954, “Rational design of caspase-responsive smart molecular probe for positron emission tomography imaging of drug-induced apoptosis” (Theranostics, 2019).
Read-outs that look alike come from different tables or passages of the source.

How the values were obtained:
[1] = system: HeLa cells; test: Cellular uptake assay of [^18F]1; format: cell-based, human
Experimental: green fluorescence) for 6 h. The active caspase-3 was stained with anti-caspase-3 primary antibody and a Cy3-labeled secondary antibody (red fluorescence). The cell nuclei were stained with DAPI (blue fluorescence). The images of 1-FITC and active caspase-3 were merged in the last column.
HeLa cells were seeded into a 6-well plate and incubated for 24 h at 37 °C. The cells were cultured in the presence of DOX (2 µM) at 37 °C for 0, 2, 4, 6, 12, and 24 h, respectively. The probe [ 18F]1 (1.0 µCi, 0.037 MBq) was added to each well and incubated for additional 4 h at 37 °C. For inhibition assay, the caspase inhibitor Z-VAD-FMK (50 µM) was added to the DOX-treated cells for 48 h before the addition of [ 18F]1. To study the influence of cold compound 1 on cellular uptake of [ 18F]1 in DOX-treated or untreated cells, HeLa cells were incubated with the cold compound 1 (10 µM) and [ 18F]1 for 4 h at 37 °C.The cells were harvested withcentrifugal separationat 4,000 rpm for 5 min after washing twice with PBS. Then Tryp-LE TM Express (1 mL) was added and the cells were kept for 1-2 min to allow detaching. The cell/Tryp-LE solution was counted by a γ counter and the activity was normalized to the protein concentration (determined by comparison with BSA standard in an absorption assay from Pierce) in each vial.
Figure S23. […]

[2] = system: HeLa xenograft tumor; details: for tracer uptake ratio in DOX-treated versus untreated tumors: only [^18F]1
Experimental: BALB/c nude mice (18-20 g, 4-6 weeks old) were used for animal experiments. Mice were housed with free access to food and water, and allowed ample time to acclimatize before the experiments. The tumor models were established by subcutaneous injection of human cervical cancer cells HeLa (1~2×10^6) suspended in PBS (100 µL) in the right shoulder or the posterior limb of the nude mouse. The tumors were allowed to grow for around 3-4 weeks to reach the size of 0.5-1.0 cm in diameter. Then, a subset of mice were treated with intratumoral or intravenous injection of DOX (0.2 mg, in 20 µL). Three days later, the animals were used for PET imaging and then the tumors were removed for the analysis of caspase-3 activity. All procedures were approved by the Animal Care and Ethics Committee of Jiangsu Institute of Nuclear Medicine.
PET scanning was carried out using an Inveon Dedicated microPET scanner (Siemens). In all experiments, the mice were anesthetized with isoflurane (2% isoflurane in oxygen at a flow rate of 2 L/min). One group of HeLa-bearing mice were scanned at baseline (without DOX treatment) as a control. For the experimental groups, microPET imaging was performed for one group of mice three days after a single intratumoral injection of DOX (0.2 mg) and the other group was performed after intravenous injection of DOX (0.2 mg) every 4 days for a total of three administrations. The probe [^18F]1 (~100 μCi, in 100 μL physiological saline) was administrated by intravenous injection via the tail vein. For the co-injection group, the mice were administrated by intravenous injection of the probe [^18F]1 with the precursor 1 (20 µmol/kg) via the tail vein. PET images were acquired in a list mode date for 60 min. The PET data were binned into 12 frames and each frame was reconstructed with the OSEM3D/MAP algorithm using microPET Manager (version 6869, Siemens). The reconstructed pixel size was 0.78 × 0.78 × 0.80 mm on a 128 × 128 × 159 image matrix. All PET images were corrected for decay but not for attenuation. Each image was analyzed using ASIPro software (Siemens). […]

[3] = system: active caspase-3 (19/17 kDa); test: Western blotting of DOX-treated HeLa cells, active caspase-3; format: cell-based, human; details: 24 h
Experimental: (§1) Western blotting analysis of caspase-3 activity in DOX-treated HeLa cells HeLa cells were seeded into 6-well plates at the density of 5 ×10^5 cells/well, followed by treatment with various concentrations of DOX for 24 h. Cells were washed with ice-cold PBS and then lysed at 4 °C for 5 min with RIPA lysis buffer containing protease and phosphatase inhibitors (Halt Protease Inhibitor Cocktail, Thermo Fisher Scientific Inc.). Soluble lysates were harvested by centrifugation at 12,000 rpm for 10 min at 4 °C. The content of protein was […]
(§2) (1 picture or pasted object on this page, not shown here) […]
(§3) measured using BCA protein assay kit and 40 μg of protein was separated with a 12% […]
(§4) SDS-PAGE gel. After blotting to PVDF membrane, the membranes were blocked with 5% […]
(§5) skimmed milk in tris-buffered saline (TBS, pH 7.4) for 60 min at room temperature and […]
(§6) incubated overnight at 4 °C in buffer (TBS with 0.1% Tween-20 and 5% skimmed milk) […]
(§7) containing different antibodies. Detection of primary antibodies was performed with […]
(§8) HRP-conjugated secondary antibody. Immunoreactive bands were visualized with Western […]
(§9) blotting luminol reagent. Densitometric analysis was performed using Image J software. […]
(§10) The DOX-treated group was cultured in the presence of DOX (2 µM) […]
(§11) for 6 h at 37 °C, then the medium was changed and the cells were cultured for another 24 h at […]
(§12) 37 °C. After incubated with 1-FITC (2 µM) for 6 h at 37 °C, the cells were washed with PBS, […]
(§13) fixed with 3.7% formaldehyde in PBS and permeabilized with 0.1% Triton X-100 in PBS for […]
(§14) 30 min at room temperature. Cells were blocked with 5% BSA in PBS for 30 min, and then […]
(§15) washed with PBS. Afterwards, cells were incubated with anti-caspase-3 antibody (caspase-3 […]
(§16) rabbit monoclonal antibody, Beyotime) overnight at 4 °C, washed with PBS, and incubated […]
(§17) with Cy3-labeled goat anti-rabbit IgG (Beyotime) for 1 h. Cells were washed with PBS […]
(§18) andstained with DAPI (5 µg/mL) for 2 min, and thenwashed twice with PBS. Finally, the cells […]
(§19) were viewed with the Olympus Xcellence. […]

[4] = system: activated caspase-3 (19/17 kDa); test: Western blotting of tumor and muscle lysates; format: in vivo, BALB/c nude mice; details: DOX intratumoral; normalized to β-actin; n = 3
Experimental: At the end of microPET imaging, DOX-treated or untreated mice were killed. Tumor and muscle tissues (~100 mg) were homogenized by an electronic homogenate machine in RIPA lysis buffer (1 mL) containing protease and phosphatase inhibitors (Halt Protease Inhibitor Cocktail, Thermo Fisher Scientific Inc.). Soluble lysates were harvested by centrifugation at 12,000 rpm for 10 min at 4 °C. Protein content was measured using BCA protein assay kit and 40 μg of protein was separated with a 12% SDS-PAGE gel. After blotting to PVDF membrane, the membranes were blocked with 5% skimmed milk in tris-buffered saline (TBS, pH 7.4) for 60 min at room temperature and incubated overnight at 4 °C in buffer (TBS with 0.1% Tween-20 and 5% skimmed milk) containing different antibodies. Detection of primary antibody was performed with HRP-conjugated secondary antibody. Immunoreactive bands were visualized with Western blotting luminol reagent. Densitometric analysis was performed using Image J software.

[5] = system: intact caspase-3 (35 kDa); test: Western blotting of DOX-treated HeLa cells, intact caspase-3; format: cell-based, human; details: 24 h
Experimental: as §1, §2, §3, §4, §5, §6, §7, §8, §9, §10, §11, §12, §13, §14, §15, §16, §17, §18, §19

[6] = system: tumor; parameters: method as in PMID 25972517; details: cited from earlier work
[7] = system: tumor; details: cited from earlier work
From the text: Recently, a potential PET imaging agent [^18F]ICMT-11 for monitoring the tumor cell death has been approved for clinical trials, where only a modest increase of 65% uptake can be observed in the treated tumor in comparison with the vehicle control tumor [36].

Molecule: [^18F]DEVD-Cys(StBu)-PPG(CBT)-AmBF3 [[^18F]1]
- uptake with versus without addition of cold compound 1 ([1]; DOX-untreated HeLa, cold 1 10 µM, 4 h, 37 °C): almost identical
- retained [^18F] activity in DOX-treated cells with caspase inhibitor, versus untreated tumor cells ([1]; HeLa, DOX 24 h, Z-VAD-FMK 50 µM for 48 h before [^18F]1): almost identical
- tumor-to-muscle uptake ratio in treated apoptotic tumor model relative to untreated group ([2]; 20 min post injection): more than two folds
- tracer uptake ratio in DOX-treated versus untreated tumors ([2]; DOX intratumoral, 15-20 min post injection): 4.23
- tracer uptake ratio in DOX-treated versus untreated tumors ([2]; DOX intravenous): 3.01

Molecule: COc1cccc2c1C(=O)c1c(O)c3c(c(O)c1C2=O)C[C@@](O)(C(=O)CO)C[C@@H]3O[C@H]1C[C@H](N)[C@H](O)[C@H](C)O1 [DOX, doxorubicin]
- increase of active caspase-3 expression versus DOX-untreated cells ([3]; 0.5 µM DOX): 3.3 folds
- increase of active caspase-3 expression versus DOX-untreated cells ([3]; 1 µM DOX): 9.3 folds
- increase of active caspase-3 expression versus DOX-untreated cells ([3]; 2 µM DOX): 13.4 folds
- increase of active caspase-3 expression versus DOX-untreated cells ([3]; 4 µM DOX): 15.5 folds
- expression level of activated caspase-3 in DOX-treated tumor versus muscle [4]: 7.5 folds
- expression level of activated caspase-3 in DOX-treated tumor versus untreated tumor [4]: 4.5 folds
- decrease of intact caspase-3 expression versus DOX-untreated cells ([5]; 0.5 µM DOX): 1.3 folds
- decrease of intact caspase-3 expression versus DOX-untreated cells ([5]; 1 µM DOX): 1.5 folds
- decrease of intact caspase-3 expression versus DOX-untreated cells ([5]; 2 µM DOX): 2.1 folds
- decrease of intact caspase-3 expression versus DOX-untreated cells ([5]; 4 µM DOX): 2.2 folds

Molecule: CC(CCCCC[18F])(C(=O)O)C(=O)O [^18F-ML-10]
- differential response to treatment [6]: little differential response
- response to cell death [6]: no differentiated response

Molecule: O=C1C(=O)N(Cc2cn(CC[18F])nn2)c2ccc(S(=O)(=O)N3CCCC3COc3ccc(F)cc3F)cc21 (stereo not shown) [[^18F]ICMT-11]
- increase of uptake in treated tumor versus vehicle control tumor [7]: 65%

Molecule: OC[C@H]1OC(O)[C@H]([18F])[C@@H](O)[C@@H]1O (stereo partly shown) [^18F-FDG]
- response to cell death [6]: no differentiated response
